The test system of this data set is CCRIS mutagenicity, Ames/micronucleus/aberration tests. The experiment in a line: CCRIS mutagenicity studies.
The mark [1] stands for this setting: Test System: AMES SALMONELLA TYPHIMURIUM, Strain/Indicator: TA98, Metabolic Activation: NONE, Method: PREINCUBATION
[2] abbreviates: Test System: AMES SALMONELLA TYPHIMURIUM, Strain/Indicator: TA100, Metabolic Activation: NONE, Method: PREINCUBATION
Where [3] appears, read: Test System: AMES SALMONELLA TYPHIMURIUM, Strain/Indicator: TA100, Metabolic Activation: NONE, Method: STANDARD PLATE.
Where [4] appears, read: Test System: AMES SALMONELLA TYPHIMURIUM, Strain/Indicator: TA102, Metabolic Activation: NONE, Method: STANDARD PLATE.

Activity calls are given as the source filed them. The rule behind the calls is not given here.

Mutagenic call data for 8 molecules are collected here from PubChem BioAssay AID1259407 (Chemical Carcinogenesis Research Information System (CCRIS), 2018).

As to `Nc1ccc(S(=O)(=O)O)c2ccccc12`, the mutagenic call by setting is: under setting [1], “inactive; negative”; (Test System: AMES SALMONELLA TYPHIMURIUM, Strain/Indicator: TA98, Metabolic Activation: RAT LIVER S-9, PHENOBARBITAL AND BETA-NAPHTHOFLAVONE, Method: PREINCUBATION) “inactive; negative”; under setting [2], “inactive; negative”; (Test System: AMES SALMONELLA TYPHIMURIUM, Strain/Indicator: TA100, Metabolic Activation: RAT LIVER S-9, PHENOBARBITAL AND BETA-NAPHTHOFLAVONE, Method: PREINCUBATION) “inactive; negative”; (Test System: AMES SALMONELLA TYPHIMURIUM, Strain/Indicator: TA1535, Metabolic Activation: NONE, Method: PREINCUBATION) “inactive; negative”; (Test System: AMES SALMONELLA TYPHIMURIUM, Strain/Indicator: TA1535, Metabolic Activation: RAT LIVER S-9, PHENOBARBITAL AND BETA-NAPHTHOFLAVONE, Method: PREINCUBATION) “inactive; negative”. Also, the mutagenic call (Test System: AMES SALMONELLA TYPHIMURIUM, Strain/Indicator: TA1537, Metabolic Activation: NONE, Method: PREINCUBATION) was “inactive; negative”; the mutagenic call (Test System: AMES SALMONELLA TYPHIMURIUM, Strain/Indicator: TA1537, Metabolic Activation: RAT LIVER S-9, PHENOBARBITAL AND BETA-NAPHTHOFLAVONE, Method: PREINCUBATION) is “inactive; negative”; the mutagenic call (Test System: AMES SALMONELLA TYPHIMURIUM, Strain/Indicator: TA1538, Metabolic Activation: NONE, Method: PREINCUBATION) is “inactive; negative”; the mutagenic call (Test System: AMES SALMONELLA TYPHIMURIUM, Strain/Indicator: TA1538, Metabolic Activation: RAT LIVER S-9, PHENOBARBITAL AND BETA-NAPHTHOFLAVONE, Method: PREINCUBATION) was “inactive; negative”; the mutagenic call (Test System: E.COLI, Strain/Indicator: WP2UVRA, Metabolic Activation: NONE, Method: PREINCUBATION) is “inactive; negative”; the mutagenic call (Test System: E.COLI, Strain/Indicator: WP2UVRA, Metabolic Activation: RAT LIVER S-9, PHENOBARBITAL AND BETA-NAPHTHOFLAVONE, Method: PREINCUBATION) was “inactive; negative”.

For the molecule `Cc1cn2c([N+](=O)[O-])c(-c3ccc([N+](=O)[O-])cc3)nc2s1`, the mutagenic call reads like this: (Test System: AMES SALMONELLA TYPHIMURIUM, Strain/Indicator: TA98, Metabolic Activation: NONE, Method: STANDARD PLATE) “active; positive”; under setting [3], “active; positive”; (Test System: AMES SALMONELLA TYPHIMURIUM, Strain/Indicator: TA1535, Metabolic Activation: NONE, Method: STANDARD PLATE) “active; positive”; (Test System: AMES SALMONELLA TYPHIMURIUM, Strain/Indicator: TA1537, Metabolic Activation: NONE, Method: STANDARD PLATE) “active; positive”; (Test System: AMES SALMONELLA TYPHIMURIUM, Strain/Indicator: TA1538, Metabolic Activation: NONE, Method: STANDARD PLATE) “active; positive”.

For `O=C(O)c1cn(C2CC2)c2cc(N3CCNCC3)c(F)cc2c1=O`, the mutagenic call (End Point: In vitro micronucleus, Test System: WTK-1 human lymphoma cells, Metabolic Activation: None) is “inactive; negative”; the mutagenic call (Test System: AMES SALMONELLA TYPHIMURIUM, Strain/Indicator: HISC3076, Metabolic Activation: NONE, Method: STANDARD PLATE) is “inactive; negative”; the mutagenic call (Test System: AMES SALMONELLA TYPHIMURIUM, Strain/Indicator: HISD3052, Metabolic Activation: NONE, Method: STANDARD PLATE) was “active; positive”; the mutagenic call (Test System: AMES SALMONELLA TYPHIMURIUM, Strain/Indicator: HISG428, Metabolic Activation: NONE, Method: STANDARD PLATE) is “inactive; negative”; the mutagenic call (Test System: AMES SALMONELLA TYPHIMURIUM, Strain/Indicator: TA92, Metabolic Activation: NONE, Method: STANDARD PLATE) is “active; positive”; the mutagenic call (Test System: AMES SALMONELLA TYPHIMURIUM, Strain/Indicator: TA94, Metabolic Activation: NONE, Method: STANDARD PLATE) is “active; positive”. For the same molecule, the mutagenic call under setting [4] was “active; positive”; the mutagenic call (Test System: AMES SALMONELLA TYPHIMURIUM, Strain/Indicator: TA103, Metabolic Activation: NONE, Method: STANDARD PLATE) is “active; positive”; the mutagenic call (Test System: AMES SALMONELLA TYPHIMURIUM, Strain/Indicator: TA104, Metabolic Activation: NONE, Method: STANDARD PLATE) was “inactive; negative”; the mutagenic call (Test System: AMES SALMONELLA TYPHIMURIUM, Strain/Indicator: TA2425, Metabolic Activation: NONE, Method: STANDARD PLATE) was “active; positive”; the mutagenic call (Test System: AMES SALMONELLA TYPHIMURIUM, Strain/Indicator: TA2638, Metabolic Activation: NONE, Method: STANDARD PLATE) is “active; positive”; the mutagenic call (Test System: AMES SALMONELLA TYPHIMURIUM, Strain/Indicator: TA2661, Metabolic Activation: NONE, Method: STANDARD PLATE) was “inactive; negative”. For the same molecule, the mutagenic call reads like this: (Test System: AMES SALMONELLA TYPHIMURIUM, Strain/Indicator: TA2662, Metabolic Activation: NONE, Method: STANDARD PLATE) “active; positive”; (Test System: AMES SALMONELLA TYPHIMURIUM, Strain/Indicator: TA2678, Metabolic Activation: NONE, Method: STANDARD PLATE) “inactive; negative”; (Test System: CHINESE HAMSTER V-79, Strain/Indicator: V-79 (HPRT)/6-THIOGUANINE, Metabolic Activation: NONE) “active; positive”; (Test System: MOUSE LYMPHOMA, Strain/Indicator: L5178Y (TK+/TK-), Metabolic Activation: NONE, Method: FLUCTUATION TEST) “active; positive”.

Consider `COc1ccc(O)c(C(C)(C)C)c1`, for which the mutagenic call is, setting by setting: (Test System: AMES SALMONELLA TYPHIMURIUM, Strain/Indicator: TA97, Metabolic Activation: NONE, Method: PREINCUBATION) “inactive; negative”; (Test System: AMES SALMONELLA TYPHIMURIUM, Strain/Indicator: TA97, Metabolic Activation: RAT, LIVER, S-9, PCB, Method: PREINCUBATION) “inactive; negative”; under setting [1], “inactive; negative”; (Test System: AMES SALMONELLA TYPHIMURIUM, Strain/Indicator: TA98, Metabolic Activation: RAT, LIVER, S-9, PCB, Method: PREINCUBATION) “inactive; negative”; under setting [2], “inactive; negative”; (Test System: AMES SALMONELLA TYPHIMURIUM, Strain/Indicator: TA100, Metabolic Activation: RAT, LIVER, S-9, PCB, Method: PREINCUBATION) “inactive; negative”. Moreover, the mutagenic call was “inactive; negative” (Test System: AMES SALMONELLA TYPHIMURIUM, Strain/Indicator: TA102, Metabolic Activation: NONE, Method: PREINCUBATION) and “inactive; negative” (Test System: AMES SALMONELLA TYPHIMURIUM, Strain/Indicator: TA102, Metabolic Activation: RAT, LIVER, S-9, PCB, Method: PREINCUBATION).

On to `O=BOO`, for which the mutagenic call is, setting by setting: under setting [4], “active; positive”; (Test System: E. COLI, Strain/Indicator: WP2 (PKM101), Metabolic Activation: NONE, Method: STANDARD PLATE) “active; positive”; (Test System: E. COLI, Strain/Indicator: WP2 UVRA (PKM101), Metabolic Activation: NONE, Method: STANDARD PLATE) “active; positive”.

For `O=C(ON(OCc1ccccc1)C(=O)c1ccccc1)c1ccccc1`, the mutagenic call under setting [3] is “active; positive”.

Regarding `OC1C=C2c3cc4ccccc4cc3-c3cccc(c32)C1O` (configuration not stated), under “Test System: AMES SALMONELLA TYPHIMURIUM, Strain/Indicator: TA100, Metabolic Activation: RAT, LIVER, S-9, AROCLOR 1254, Method: STANDARD PLATE”, the mutagenic call is “active; positive”.

On to `Nc1ccc(N=Nc2ccccc2)c(N)n1`, for which the mutagenic call was “active; positive (ploidy changes)” (End Point: IN VITRO CHROMOSOMAL ABERRATIONS, Test System: CHINESE HAMSTER OVARY CELLS, Metabolic Activation: NONE); “active; positive; authors reported that all doses were toxic, but were scored because of” (End Point: IN VITRO CHROMOSOMAL ABERRATIONS, Test System: CHINESE HAMSTER OVARY CELLS, Metabolic Activation: RAT, LIVER, S-9, AROCLOR 1254); “inactive; negative” (Test System: MOUSE LYMPHOMA, Strain/Indicator: L5178Y (TK+/TK-), Metabolic Activation: NONE, Method: SUSPENSION/PLATE); “active; positive” (Test System: MOUSE LYMPHOMA, Strain/Indicator: L5178Y (TK+/TK-), Metabolic Activation: RAT, LIVER, S-9, AROCLOR 1254, Method: SUSPENSION/PLATE); “active; positive” (Test System: UDS RAT HEPATOCYTES, Strain/Indicator: BROMODEOXYURIDINE INCORP, Metabolic Activation: NONE, Method: FLOW CYTOMETRIC ANALYSIS); “active; positive” (Test System: UDS RAT HEPATOCYTES, Strain/Indicator: THY INCORP, Metabolic Activation: NONE, Method: AUTORADIOGRAPHY).
